Measured values reported in patent US9527896B2, “Stabilized p53 peptides and uses thereof” (DANA-FARBER CANCER INSTITUTE, INC., priority 2007, dated 2016).
Where two headings read alike, the source gives them in different places. Bridge positions count the residues as written; N and C are the ends. Square brackets hold non-standard residues; d marks the D form. Peptide text beside a SMILES is read from it. R8 = C=CCCCCCC[C@@](C)(N)C(=O)O; S5 = C=CCCC[C@](C)(N)C(=O)O; βAla = NCCC(=O)O

Tests used:
[1] = circular dichroism; conditions: water; pH 7.0; 20 °C; 10-50 uM
[2] = biological target: T1, HDM2 (Homo sapiens, UniProt Q00987); assay: Kd (nM)
T1 construct: Co-Immunoprecipitation of FITC-SAH-p53 Peptides and Endogenous HDM2; endogenous in cells; host or cells: SJSA-1 osteosarcoma cells
T1 sequence (Q00987 whole entry, looked up): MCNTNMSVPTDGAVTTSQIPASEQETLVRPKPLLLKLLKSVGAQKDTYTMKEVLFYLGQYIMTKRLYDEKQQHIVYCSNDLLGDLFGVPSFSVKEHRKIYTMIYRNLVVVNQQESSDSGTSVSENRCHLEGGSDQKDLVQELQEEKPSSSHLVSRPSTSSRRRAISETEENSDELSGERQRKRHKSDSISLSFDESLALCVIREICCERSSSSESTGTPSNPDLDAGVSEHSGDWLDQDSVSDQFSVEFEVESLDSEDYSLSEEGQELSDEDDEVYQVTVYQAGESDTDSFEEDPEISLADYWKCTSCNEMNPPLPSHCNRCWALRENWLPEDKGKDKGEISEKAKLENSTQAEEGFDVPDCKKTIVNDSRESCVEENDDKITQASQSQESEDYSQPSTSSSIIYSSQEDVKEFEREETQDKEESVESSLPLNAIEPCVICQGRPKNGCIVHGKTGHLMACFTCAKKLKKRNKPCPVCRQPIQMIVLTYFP
Excerpt: The patent's description of the figure: FIGS. 1A-1F Synthesis, Sequence, and Biochemical Analysis of SAH-p53 Peptides. FIG. 1A Non-natural amino acids were synthesized as described and cross-linked by ruthenium-catalyzed ring-closing olefin metathesis. […] Note: UAH-p53-8 is the “unstapled” form of SAH-p53-8.

[3] = biological target: T2, HDM217-125 (Homo sapiens, UniProt Q00987); assay: Fluorescence polarization binding assay, FITC-peptides and HDM217-125; conditions: FITC-labeled derivatives
T2 construct: plasmid encoding HDM217-125 with an N-terminal hexahistidine tag; hexahistidine tag (N, cleaved yes); thrombin cleavage site (N, cleaved yes); made in house; host or cells: Escherichia coli BL21 (DE3)
T2 sequence (Q00987 17-125 limits assumed): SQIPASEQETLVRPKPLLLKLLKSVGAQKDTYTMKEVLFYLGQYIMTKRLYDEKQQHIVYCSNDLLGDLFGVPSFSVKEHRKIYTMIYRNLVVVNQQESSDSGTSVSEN
Experimental: (§1) FIG. 10 Fluorescence polarization binding assay of stapled peptides. Fluoresceinated peptides (5 nM) were incubated with recombinant HDM217-125 (25 pM-10 μM) at room temperature. Binding activity was measured by fluorescence polarization, and Kd values were obtained by […].
as §1, with “A fluorescence” for “FIG. 10 Fluorescence”, “assay was used to assess binding” for “assay”, “peptides to HDM217-125.” for “stapled peptides.”, “KD” for “Kd”
Purified HDM217-125 was prepared as follows. […]
and a thrombin cleavage site were cultured in kanamycin- and chloramphenicol-containing Luria Broth and induced with 0.1 mM isopropyl β-D-thiogalactoside (IPTG). […] Purity of the protein was assessed by SDS-PAGE, FPLC and MALDI-TOF and determined to be >90%. […]
Fluoresceinated compounds (LT=5-25 nM) were incubated with HDM217-125 in binding assay buffer (140 mM NaCl, 50 mM, Tris pH 8.0) at room temperature. Binding activity was measured by fluorescence polarization on a Perkin-Elmer LS50B luminescence spectrophotometer using a cuvette containing a stirbar or a Spectramax M5 Microplate Reader (Molecular Devices). Kd values were determined by nonlinear regression analysis of dose response curves using Prism software 4.0 Graphpad. […]

[4] = Ex vivo protease stability in serum; format: in vitro ADME, mouse
Experimental: FIG. 5 To determine whether SAH-p53 peptides have increased proteolytic stability, the wild type p5314-29 peptide and SAH-p53-4 were exposed to serum ex vivo.
To assess the protease stability of the peptides, fluoresceinated peptides (2.5 μg) were incubated with fresh mouse serum (20 μL) at 37° C. for 0-24 hours. The level of intact fluoresceinated compound was determined by flash freezing the serum specimens in liquid nitrogen, lyophilization, extraction in 1:1 CH3CN:H2O containing 0.1% TFA, followed by HPLC-based quantitation using fluorescence detection at excitation/emission settings of 495/530 nm.

[5] = test system: SJSA-1 cells
Excerpt: After washing with PBS, the cells were fixed in 4% paraformaldehyde, washed with PBS, and treated with DAPI-containing (nuclear counterstain) Vectashield mounting medium (Vector), coverslipped and imaged by confocal microscopy (BioRad 1024 or Nikon E800).

[6] = test system: SJSA-1 cells; format: cell-based; conditions: 24 h
Experimental: SJSA-1 osteosarcoma cells (4×10^5 cells per well) were incubated in 96-well plates and treated with p53 peptides in serum-free media for 4 hours, followed by serum replacement and additional incubation for 20 hours. Cell viability was assayed by addition of CellTiter-Glo™ bioluminescence reagent (Promega) and reading luminescence in a Spectramax M5 microplate reader (Molecular Devices). The extent of apoptosis was measured through the detection of caspase-3 activity by exposing the cells to a caspase-3-specific substrate (Oncogene). Fluorescence as a result of substrate cleavage was measured in a Spectramax M5 microplate reader (Molecular Devices).

[7] = test system: SJSA-1 cells; format: cell-based; conditions: 24 h; remark: listed apart in the source
Experimental: The cells were then exposed to a caspase-3 specific substrate (Ac-DEVD-AMC ('DEVD' disclosed as SEQ ID NO: 7)). Fluorescence as a result of cleavage was measured in a microplate reader. To determine the specificity of the activity, certain peptides were incubated alongside DEVD-CHO ('DEVD' disclosed as SEQ ID NO: 7), a substrate known to inhibit caspase-3 specifically. The effect of various peptides on caspase-3 activation was examined as follows. […] The cells were then exposed to a caspase-3 specific substrate. Fluorescence as a result of cleavage was measured in a microplate reader. To determine the specificity of the activity, certain peptides were incubated alongside DEVD-CHO ('DEVD' disclosed as SEQ ID NO: 7), a substrate known to inhibit caspase-3 specifically. […] Cell viability was assayed by addition of CellTiter-GloTM bioluminescence reagent (Promega) and reading luminescence in a Spectramax M5 microplate reader (Molecular Devices). The extent of apoptosis was measured through the detection of caspase-3 activity by exposing the cells to a caspase-3-specific substrate (Oncogene). Fluorescence as a result of substrate cleavage was measured in a Spectramax M5 microplate reader (Molecular Devices).

SMILES | Kd [2] [nM] | helicity [1] [%] | further results
CC(=O)NCCC(=O)N[C@@H](CC(C)C)C(=O)N[C@@H](CO)C(=O)N[C@@H](CCC(N)=O)C(=O)N[C@@H](CCC(=O)O)C(=O)N[C@H](C(=O)N[C@@H](Cc1ccccc1)C(=O)N[C@@H](CO)C(=O)N[C@@H](CC(=O)O)C(=O)N[C@@H](CC(C)C)C(=O)N[C@@H](Cc1c[nH]c2ccccc12)C(=O)N[C@@H](CCCCN)C(=O)N[C@@H](CC(C)C)C(=O)N[C@@H](CC(C)C)C(=O)N1CCC[C@H]1C(=O)N[C@@H](CCC(=O)O)C(=O)N[C@@H](CC(N)=O)C(N)=O)[C@@H](C)O | – | 11 | –
CC(=O)NCCC(=O)N[C@@H](CC(C)C)C(=O)N[C@@H](CO)C(=O)N[C@@H](CCC(N)=O)C(=O)N[C@@H](CCC(=O)O)C(=O)N[C@]1(C)CCCCCCC=CCCC[C@@](C)(C(=O)N[C@@H](CC(C)C)C(=O)N2CCC[C@H]2C(=O)N[C@@H](CCC(=O)O)C(=O)N[C@@H](CC(N)=O)C(N)=O)NC(=O)[C@H](CCCCN)NC(=O)[C@H](Cc2c[nH]c3ccccc23)NC(=O)[C@H](CC(C)C)NC(=O)[C@H](CC(=O)O)NC(=O)[C@H](CO)NC(=O)[C@H](Cc2ccccc2)NC1=O (Ac-[βAla]LSQE[R8]FSDLWK[S5]LPEN-NH2; staple 6-13) | – | 10 | –
CC(=O)NCCC(=O)N[C@@H](CC(C)C)C(=O)N[C@@H](CO)C(=O)N[C@@H](CCC(N)=O)C(=O)N[C@]1(C)CCCCCCC=CCCC[C@@](C)(C(=O)N[C@@H](CC(C)C)C(=O)N[C@@H](CC(C)C)C(=O)N2CCC[C@H]2C(=O)N[C@@H](CCC(=O)O)C(=O)N[C@@H](CC(N)=O)C(N)=O)NC(=O)[C@H](Cc2c[nH]c3ccccc23)NC(=O)[C@H](CC(C)C)NC(=O)[C@H](CC(=O)O)NC(=O)[C@H](CO)NC(=O)[C@H](Cc2ccccc2)NC(=O)[C@H]([C@@H](C)O)NC1=O (Ac-[βAla]LSQ[R8]TFSDLW[S5]LLPEN-NH2; staple 5-12) | – | 12 | –
CC(=O)NCCC(=O)N[C@@H](CC(C)C)C(=O)N[C@@H](CO)C(=O)N[C@@H](CCC(N)=O)C(=O)N[C@@H](CCC(=O)O)C(=O)N[C@H](C(=O)N[C@@H](Cc1ccccc1)C(=O)N[C@@H](CO)C(=O)N[C@@H](CC(=O)O)C(=O)N[C@]1(C)CCCCCCC=CCCC[C@@](C)(C(N)=O)NC(=O)[C@H](CCC(=O)O)NC(=O)[C@@H]2CCCN2C(=O)[C@H](CC(C)C)NC(=O)[C@H](CC(C)C)NC(=O)[C@H](CCCCN)NC(=O)[C@H](Cc2c[nH]c3ccccc23)NC1=O)[C@@H](C)O [SAH-p53-1] (Ac-[βAla]LSQETFSD[R8]WKLLPE[S5]-NH2; staple 10-17) | 100 ± 8 | 25 | –
C=CCCCCCC[C@@](C)(NC(=O)[C@H](Cc1ccccc1)NC(=O)[C@@H](NC(=O)[C@H](CCC(N)=O)NC(=O)[C@H](CCC(N)=O)NC(=O)[C@H](CO)NC(=O)[C@H](CCC(N)=O)NC(=O)CCNC(C)=O)[C@@H](C)O)C(=O)N[C@@H](CC(N)=O)C(=O)N[C@@H](CC(C)C)C(=O)N[C@@H](Cc1c[nH]c2ccccc12)C(=O)N[C@@H](CCCNC(=N)N)C(=O)N[C@@H](CC(C)C)C(=O)N[C@@H](CC(C)C)C(=O)N[C@@](C)(CCCC=C)C(=O)N[C@@H](CCC(N)=O)C(=O)N[C@@H](CC(N)=O)C(N)=O [UAH-p53-8, Ac-QSQQTF*NLWRKK*QN-NH2] | – | 36 | –

The next lines start with results.

Kd [2] [nM] | SMILES | helicity [1] [%] | further results
0.92 ± 0.11 | CC(=O)NCCC(=O)N[C@@H](CC(C)C)C(=O)N[C@@H](CO)C(=O)N[C@@H](CCC(N)=O)C(=O)N[C@@H](CCC(=O)O)C(=O)N[C@H](C(=O)N[C@@H](Cc1ccccc1)C(=O)N[C@]1(C)CCCCCCC=CCCC[C@@](C)(C(=O)N[C@@H](CCC(=O)O)C(=O)N[C@@H](CC(N)=O)C(N)=O)NC(=O)[C@H](CC(C)C)NC(=O)[C@H](CC(C)C)NC(=O)[C@H](CCCCN)NC(=O)[C@H](Cc2c[nH]c3ccccc23)NC(=O)[C@H](CC(C)C)NC(=O)[C@H](CC(=O)O)NC1=O)[C@@H](C)O [SAH-p53-4] | 59 | HDM2 binding affinity [3]: subnanomolar; proteolytic stability [4]: improved proteolytic stability; serum half-life (t1/2) compared with unmodified wild type peptide ([4]; exposed to serum ex vivo): almost four times longer
0.8 ± 0.05 | CC(=O)NCCC(=O)N[C@@H](CC(C)C)C(=O)N[C@@H](CO)C(=O)N[C@@H](CCC(N)=O)C(=O)N[C@@H](CCC(=O)O)C(=O)N[C@H](C(=O)N[C@@H](Cc1ccccc1)C(=O)N[C@]1(C)CCCCCCC=CCCC[C@@](C)(C(=O)N[C@@H](CCC(N)=O)C(=O)N[C@@H](CC(N)=O)C(N)=O)NC(=O)[C@H](CC(C)C)NC(=O)[C@H](CC(C)C)NC(=O)[C@H](CCCCN)NC(=O)[C@H](Cc2c[nH]c3ccccc23)NC(=O)[C@H](CC(C)C)NC(=O)[C@H](CC(N)=O)NC1=O)[C@@H](C)O [SAH-p53-5] (Ac-[βAla]LSQETF[R8]NLWKLL[S5]QN-NH2; staple 8-15) | 20 | –
50 ± 10 | CC(=O)NCCC(=O)N[C@@H](CCC(N)=O)C(=O)N[C@@H](CO)C(=O)N[C@@H](CCC(N)=O)C(=O)N[C@@H](CCC(N)=O)C(=O)N[C@H](C(=O)N[C@@H](Cc1ccccc1)C(=O)N[C@]1(C)CCCCCCC=CCCC[C@@](C)(C(=O)N[C@@H](CCC(N)=O)C(=O)N[C@@H](CC(N)=O)C(N)=O)NC(=O)[C@H](CC(C)C)NC(=O)[C@H](CC(C)C)NC(=O)[C@H](CCCCN)NC(=O)[C@H](Cc2c[nH]c3ccccc23)NC(=O)[C@H](CC(C)C)NC(=O)[C@H](CC(N)=O)NC1=O)[C@@H](C)O [SAH-p53-7] (Ac-[βAla]QSQQTF[R8]NLWKLL[S5]QN-NH2; staple 8-15) | 36 | –
> 4000 | CC(=O)NCCC(=O)N[C@@H](CCC(N)=O)C(=O)N[C@@H](CO)C(=O)N[C@@H](CCC(N)=O)C(=O)N[C@@H](CCC(N)=O)C(=O)N[C@H](C(=O)N[C@@H](C)C(=O)N[C@]1(C)CCCCCCC=CCCC[C@@](C)(C(=O)N[C@@H](CCC(N)=O)C(=O)N[C@@H](CC(N)=O)C(N)=O)NC(=O)[C@H](CC(C)C)NC(=O)[C@H](CC(C)C)NC(=O)[C@H](CCCNC(=N)N)NC(=O)[C@H](Cc2c[nH]c3ccccc23)NC(=O)[C@H](CC(C)C)NC(=O)[C@H](CC(N)=O)NC1=O)[C@@H](C)O [SAH-p53-8F19A] (Ac-[βAla]QSQQTA[R8]NLWRLL[S5]QN-NH2; staple 8-15; N-terminus and C-terminus assumed) | 39 | cellular fluorescence [5]: Cellular fluorescence was observed
55 ± 11 | CC(=O)NCCC(=O)N[C@@H](CCC(N)=O)C(=O)N[C@@H](CO)C(=O)N[C@@H](CCC(N)=O)C(=O)N[C@@H](CCC(N)=O)C(=O)N[C@H](C(=O)N[C@@H](Cc1ccccc1)C(=O)N[C@]1(C)CCCCCCC=CCCC[C@@](C)(C(=O)N[C@@H](CCC(N)=O)C(=O)N[C@@H](CC(N)=O)C(N)=O)NC(=O)[C@H](CC(C)C)NC(=O)[C@H](CC(C)C)NC(=O)[C@H](CCCNC(=N)N)NC(=O)[C@H](Cc2c[nH]c3ccccc23)NC(=O)[C@H](CC(C)C)NC(=O)[C@H](CC(N)=O)NC1=O)[C@@H](C)O [SAH-p53-8] | 85 | EC50 [6]: 8.8 µM; EC50 [7]: 5.8 µM; cellular fluorescence [5]: Cellular fluorescence was observed
